Measurements: patent US8188119B2, “Pyridine derivatives substituted with heterocyclic ring and γ-glutamylamino group, and antifungal agents containing same” (Eisai R&D Management Co., Ltd, priority 2008, dated 2012)
Values after ≈ are worked out from the molar mass of the structure shown. Like-named read-outs stand apart in the source and are kept apart here.

Experiments:
[1] = Comparative test of solubility in water (Britton-Robinson buffer); type: physicochemical; settings: for solubility: aqueous buffer, Britton-Robinson buffer (ionic strength: 0.3), 25° C.; for Solubility in water compared with the parent compound: conclusion from Table 1
[2] = Pharmacokinetic evaluation of compounds of Examples 2 and 3 in mice (plasma concentration, LC-MS); type: in vivo; settings: female ICR mice, tail vein, 3 mg/kg as active form equivalent; for Plasma concentration of the administered compound: 20 min to 8 h; for Plasma concentration of the administered compound / Concentration of the active form in plasma after administration of the compound: FIG. 2
Description: 2. Pharmacokinetic Evaluation of Compound of Examples 2 and 3 in Mice
The compounds of Examples 2 and 3 were dissolved in respective concentrations of 1 and 1.5 mg/mL with 5% glucose (Otsuka Pharmaceutical) containing a 10 mM hydrochloric acid solution (Wako Pure Chemicals), and the active form was dissolved in a concentration of 0.5 mg/mL in 5% glucose (Otsuka Pharmaceutical) containing a 10 mM hydrochloric acid solution (Wako Pure Chemicals).
Using seven-week-old female ICR mice (Charles River Japan), with two mice per group, the compound of the present invention and the active form thereof were administered into the tail vein in a dose of 3 mg/kg, calculated as an active form equivalent. The tail vein was punctured 20 minutes, 45 minutes, and 1.5, 3, 5, and 8 hours after administration, and blood was collected with a heparin-treated pipette. The blood samples were put in sampling tubes and stored under ice cooling, after which they were centrifuged for 5 minutes at 10,500×g and at 4° C. The plasma thus obtained was accurately divided into 5 μL amounts and stored at −20° C. until they were analyzed.
The plasma concentrations of the compounds of Examples 2 and 3 and the active form thereof were measured using a liquid chromatography mass spectrometer (LC-MS: Waters, ZQ mass detector), and quantified by internal standard method. Imipramine hydrochloride (Sigma) was dissolved in a mixed solution of acetonitrile and methanol (9:1) so that the concentration would be 1 μmol/L, to prepare an internal standard substance solution (IS solution). The plasma was melted, after which 50 μL of IS solution was added thereto and mixed while still cooled with ice, and this was centrifuged (deproteinated) for 10 minutes at 1607×g and at 4° C., after which the supernatant was analyzed by LC-MS (Waters, ZQ mass detector). In the chromatogram thus obtained, the surface area of the peaks for the compounds of Examples 2 and 3, the active form thereof, and the internal standard substance were analyzed with analytic software (Waters: MassLynx 4.0), and the concentration of the compound included in the plasma was calculated by internal standard method.

[3] = buffer
[4] = Pharmacokinetic evaluation of compound of Example 1 in mice (plasma concentration, LC-MS/MS); type: in vivo; settings: female ICR mice, tail vein, 3 mg/kg
Description: 1. Pharmacokinetic Evaluation of Compound of Example 1 in Mice […] The blood samples were put in sampling tubes and stored under ice cooling, after which they were centrifuged for 5 minutes at 10,500×g and at 4° C. The plasma thus obtained was accurately divided into 10 μL amounts and stored at −20° C. until they were analyzed. The plasma concentrations of the compound of Example 1 and the active form thereof were measured using a liquid chromatography mass spectrometer (LC-MS/MS: Waters, Quattro Ultima Pt), and quantified by internal standard method. […] MultiScreen™) and analyzed by LC-MS/MS (Waters, Quattro Ultima Pt). In the chromatogram thus obtained, the surface area of the peaks for the compound of Example 1, the active form thereof (the parent compound of the compound of Example 1), and the internal standard substance were analyzed with analytic software (Waters: MassLynx 4.0), and the concentration of the compound included in the plasma was calculated by internal standard method. The active form concentration after administration of the compound of Example 1 was corrected with the molecular weight ratio, that is, the value of (the molecular weight of the compound of Example 1)/(the molecular weight of the active form).

[5] = Stability in solution in Britton-Robinson buffer; settings: Britton-Robinson buffer (ionic strength: 0.3), 25° C.
[6] = pH 3, read-out: Solubility (mg/mL) pH 3
[7] = pH 7, read-out: Solubility (mg/mL) pH 7

Row | SMILES | solubility [1, 6] | solubility [1, 7] | Solubility in water compared with the parent compound [1] | Conversion into the active form in the bodies of the mice [2] | Plasma concentration of the administered compound [2] | Concentration of the active form in plasma after administration of the compound [2] | Stability in solution (remainder (%) after 24 h in dark place) pH 3 [3] | Stability in solution (remainder (%) after 24 h in dark place) pH 7 [3] | Conversion into the active form in the bodies of the mice [4] | Plasma concentration of the active form after administration of the compound ([4]; FIG. 1) | Plasma concentration of the administered compound ([4]; FIG. 1) | Stability in solution (remainder (%) after 24 h in dark place) pH 2 ([5]; pH 2 (printed in pH 3 column), 24 h in dark place) | Stability in solution (remainder (%) after 24 h in dark place) pH 4 ([5]; pH 4 (printed in pH 3 column), 24 h in dark place) | Stability in solution (remainder (%) after 24 h in dark place) pH 7 ([5]; pH 7, 24 h in dark place)
1 | COC(=O)[C@@H](N)CCC(=O)Nc1ncccc1-c1cc(Cc2ccc(COc3ccccn3)cc2)no1 [Example 2, (S)-2-Amino-4-(3-{-[4-(pyridin-2-yloxymethyl)-benzyl]soxazol-5-yl}-pyridin-2-ylcarbamoyl)-butyric acid methyl ester] | 45 mg/mL (≈ 89700 µM) | 0.2 mg/mL (≈ 399 µM) | higher solubility in water than does the parent compound | rapidly converted into the active form | not detected | rose sharply after administration | 88% | 44% | – | – | – | – | – | –
2 | N[C@@H](CCC(=O)Nc1ncccc1-c1cc(Cc2ccc(COc3ccccn3)cc2)no1)C(=O)O [Example 1, (S)-2-Amino-4-(3-(3-(4-(pyridin-2-yloxymethyl)-benzyl)-isoxazol-5-yl)-pyridin-2-ylcarbamoyl)-butyric acid] | 1.1 mg/mL (≈ 2260 µM) | 0.3 mg/mL (≈ 615 µM) | higher solubility in water than does the parent compound | – | – | – | 96% | 92% | rapidly converted into the active form | increased quickly from immediately after administration | decreased quickly after administration | – | – | –
3 | CN(C)CCOC(=O)[C@@H](N)CCC(=O)Nc1ncccc1-c1cc(Cc2ccc(COc3ccccn3)cc2)no1 [Example 3, (S)-2-Amino-4-(3-{3-[4-(pyridin-2-yloxymethyl)-benzyl]-isoxazol-5-yl}-pyridin-2-ylcarbamoyl)-butyric acid 2-dimethylamino-ethyl ester] | 12 mg/mL (≈ 21500 µM) | 1.1 mg/mL (≈ 1970 µM) | higher solubility in water than does the parent compound | rapidly converted into the active form | not detected | rose sharply after administration | 116% | 82% | – | – | – | – | – | –
4 | Nc1ncccc1-c1cc(Cc2ccc(COc3ccccn3)cc2)no1 [Parent compound, 3-(3-(4-(Pyridin-2-yloxymethyl)-benzyl)-isoxazol-5-yl)-pyridin-2-ylamine] | 0.29 mg/mL (≈ 809 µM) | 0.001 mg/mL (≈ 2.79 µM) | – | – | – | – | – | – | – | – | – | 90 (pH 2) % | 99 (pH 4) % | 95%
